Tests used:
Prothrombin = Prothrombin (Homo sapiens, UniProt P00734); assay: Inhibitory constant against thrombin using human purified enzymes
Serine protease 1 = Serine protease 1 (Homo sapiens, UniProt P07477); assay: Inhibitory constant against trypsin using human purified enzymes
Coagulation factor X = Coagulation factor X (Homo sapiens, UniProt P00742); assay: Inhibition of human purified factor Xa
[1] = Clearance after intravenous administration of 1.0 mg/kg in dog was determined; assay type: ADME, organism-based, Canis lupus familiaris; design: dose 1 mg/kg, route intravenous; details: in vivo
[2] = Half-life period after intravenous administration of 1.0 mg/kg in dog was determined; assay type: ADME, organism-based, Canis lupus familiaris; design: dose 1 mg/kg, route intravenous; details: in vivo
Oryctolagus cuniculus = species: Oryctolagus cuniculus; assay: Antithrombotic efficacy in rabbit A-V shunt model was determined; assay type: functional
[3] = Clearance after intravenous administration of 0.5 mg/kg in dog was determined; assay type: ADME, organism-based, Canis lupus familiaris; design: dose 0.5 mg/kg, route intravenous; details: in vivo
[4] = Clearance after peroral administration of 0.2 mg/kg in dog was determined; assay type: ADME, organism-based, Canis lupus familiaris; design: dose 0.2 mg/kg, route oral; details: in vivo, po
[5] = Half-life period after peroral administration of 0.2 mg/kg in dog was determined; assay type: ADME, organism-based, Canis lupus familiaris; design: dose 0.2 mg/kg, route oral; details: in vivo, po
[6] = Half-life period after intravenous administration of 0.5 mg/kg in dog was determined; assay type: ADME, organism-based, Canis lupus familiaris; design: dose 0.5 mg/kg, route intravenous; details: in vivo

Coagulation factor X, sequence (P00742 41-179 limits assumed): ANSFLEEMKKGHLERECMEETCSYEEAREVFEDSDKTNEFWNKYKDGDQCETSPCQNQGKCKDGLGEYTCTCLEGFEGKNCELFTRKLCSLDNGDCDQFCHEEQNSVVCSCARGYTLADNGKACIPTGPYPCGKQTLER
Coagulation factor X, sequence (P00742 235-488 limits assumed): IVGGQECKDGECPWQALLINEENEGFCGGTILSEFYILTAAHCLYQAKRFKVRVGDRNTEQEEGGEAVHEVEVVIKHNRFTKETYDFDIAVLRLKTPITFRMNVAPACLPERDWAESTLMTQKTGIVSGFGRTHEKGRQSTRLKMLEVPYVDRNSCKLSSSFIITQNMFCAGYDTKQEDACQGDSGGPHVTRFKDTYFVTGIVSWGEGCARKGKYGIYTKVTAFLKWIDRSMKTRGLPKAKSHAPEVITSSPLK
Serine protease 1, sequence (P07477 whole entry): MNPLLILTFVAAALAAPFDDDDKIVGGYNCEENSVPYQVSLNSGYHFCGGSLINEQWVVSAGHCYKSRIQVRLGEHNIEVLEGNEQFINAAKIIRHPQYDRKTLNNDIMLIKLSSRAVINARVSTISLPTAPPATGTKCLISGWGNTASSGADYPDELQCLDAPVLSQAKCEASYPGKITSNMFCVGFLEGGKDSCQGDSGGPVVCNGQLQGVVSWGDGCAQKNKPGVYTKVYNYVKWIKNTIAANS

| Ki (Prothrombin) [nM] | Ki (Serine protease 1) [nM] | Ki (Coagulation factor X) [nM] | SMILES | also measured |
| --- | --- | --- | --- | --- |
| 4000 | > 1600 | – | COc1ccc(-n2nnnc2C(=O)Nc2ccc(-c3ccccc3S(N)(=O)=O)cc2)cc1N | – |
| > 21000 | 69 | 13 | NCc1cccc(-n2nnnc2C(=O)Nc2ccc(-c3ccccc3S(N)(=O)=O)cc2)c1 | – |
| 1200 | > 1600 | 3 | Nc1cc(-n2nnnc2C(=O)Nc2ccc(C(=O)N3CCCC3)cc2F)ccc1Cl | – |
| > 21000 | > 1600 | 2.9 | Nc1noc2ccc(-n3nnnc3C(=O)Nc3ccc(C(=O)N4CCCC4)cc3F)cc12 | – |
| 1600 | > 1600 | 5.4 | Nc1cc(-n2nnnc2C(=O)Nc2ccc(-c3ccccc3S(N)(=O)=O)cc2)ccc1Cl | – |
| 7900 | > 1600 | 8 | Nc1cc(-n2nnnc2C(=O)Nc2ccc(-c3ccccc3S(N)(=O)=O)cn2)ccc1Cl | – |
| – | – | 1.2 | Nc1cc(-n2nnnc2C(=O)Nc2ccc(-c3ccccc3S(N)(=O)=O)cc2F)ccc1Cl | – |
| – | 6.4 | – | N=C(N)c1cccc(-n2nnnc2C(=O)Nc2ccc(-c3ccccc3S(N)(=O)=O)cc2)c1 | clearance [1]: 10.3 mL/min/kg; half-life [2]: 39 min; ID50 (Oryctolagus cuniculus): 0.13 µM/h/kg |
| 600 | > 5200 | 0.35 | Nc1noc2ccc(-n3nnnc3C(=O)Nc3ccc(-c4ccccc4S(N)(=O)=O)cc3F)cc12 | clearance [3]: 5 mL/min/kg; CL/F [4]: 5 mL/min/kg; half-life [5]: 186 min; ID50 (Oryctolagus cuniculus): 5.8 µM/h/kg; half-life [6]: 186 min |
| 1600 | > 1600 | 3.3 | Nc1cc(-n2nnnc2C(=O)Nc2ccc(-c3ccccc3S(N)(=O)=O)cc2Cl)ccc1Cl | – |
| 10000 | > 1600 | 8 | COc1ccc(-n2nnnc2C(=O)Nc2ccc(-c3ccccc3S(N)(=O)=O)cc2)cc1 | – |
| 400 | > 1600 | 0.39 | CS(=O)(=O)c1ccccc1-c1ccc(NC(=O)c2nnnn2-c2ccc3onc(N)c3c2)c(F)c1 | – |
| 1500 | > 1600 | 0.98 | Nc1noc2ccc(-n3nnnc3C(=O)Nc3ccc(-c4ccccc4S(N)(=O)=O)cc3)cc12 | – |
